Assay results taken from patent US20140357512A1, “HISTONE DEACETYLASE (HDAC) BIOMARKERS IN MULTIPLE MYELOMA” (priority 2013, published 2014).

Tested on: human myeloma cell line MM.1S
Assay: SILAC acetylated-lysine peptide profiling, HDAC inhibitor vs DMSO (light/heavy ratio)
Assay type: cell-based
Source text: An embodiment of the invention comprises utilizing the SILAC method in order to quantitate changes in protein expression between two or more populations of cells. The SILAC method is a technique based on mass spectrometry that detects differences in protein abundance among samples using non-radioactive isotopic labeling. The SILAC method is known in the art, and described in detail in Ong et al., “Stable Isotope Labeling by Amino Acids in Cell Culture, SILAC, as a Simple and Accurate Approach to Expression Proteomics”, Molecular & Cellular Proteomics, vol. 1, pp. 376-386 (2002), which is incorporated herein by reference in its entirety.
Briefly, the SILAC method involves growing two populations of cells in cell culture. The first population of cells is grown in growth media containing normal amino acids (“normal media”). The second population of cells is grown in media lacking a standard essential amino acid (such as lysine), but is then supplemented with a non-radioactive, isotopically labeled form of that essential amino acid (such as lysine labeled with ^13C atoms, rather than normal ^12C atoms), which is called “heavy media”. When the two populations of cells are each growing in the medium, they incorporate the amino acids into all of their proteins. The growth of cells maintained in the heavy media is no different from that in normal media. All peptides containing the heavy amino acids are heavier than their normal counterparts. The cells from each of the two populations of cells are lysed. The lysates from each of the two cell populations are then combined. The combined cell lysates are then analyzed by mass spectrometry. Pairs of chemically identical peptides of different stable isotope composition can be differentiated in a mass spectrometer due to their difference in mass. The ratio of peak intensities in the mass spectrum for such peptide pairs reflects the abundance ratio for the two proteins.
This example describes SILAC studies that were performed to compare the effects of three different HDAC inhibitors (Compound A, Compound B, and tubastatin A) to a control on a human multiple myeloma cell line. The HDAC inhibitors were also compared amongst themselves to determine differences in their effects.
A human myeloma cell line MM.1S was grown using either ^12C (light) or ^13C (heavy) lysine containing culture medium. The “heavy” cells were treated with DMSO as the control, and the “light” cells were treated with a single HDAC inhibitor at 37° C. for 6 hours. The heavy and light cells were lysed, and the lysates were mixed in 1:1 ratio and digested with the protease trypsin. The acetylated lysine containing peptides (due to the action of the HDAC inhibitor) in the digested peptide pool were captured by a non-specific anti-acetylated lysine antibody cocktail (the antibodies identify both light and heavy acetylated peptides), and subjected to mass spectrometry analysis in order to identify thousands of individual peptides.
Thousands of peptides were identified in pairs (^12C and ^13C) due to their known mass differences. The amino acid sequence and quantitative ratio (Light/Heavy) of a given peptide in two differentially treated cell lysates were then determined and annotated with their possible protein (gene) sources.
As stated above, three HDAC inhibitors (Compound A, Compound B, and Tubastatin A) were used. Thus, the SILAC method was performed three times, with a different HDAC inhibitor compared to a control each time. Accordingly, there are three pairs of quantitative data in the table below, i.e., Compound A:DMSO, Compound B:DMSO, and Tubastatin A:DMSO. A cut-off of 1.30 fold of change (increase or decrease) was then used to determine “changed” or “+” in the table, and any peptides with a fold of change less than 1.3 fold were determined to be “unchanged” or “0” in the table. Those peptides that were not identified were marked as “NA” in the table. […]

How did the “light to heavy ratio (L/H ratio) of acetylated peptide TACAINK(ac)VLMGR (SEQ ID NO: 584)” value (Isoform 1 of Protein FAM98A [297], gene FAM98A, inhibitor:DMSO) turn out when `O=C(NO)c1cnc(NC2(c3cccc(F)c3)CCCCC2)nc1` [Compound B, 2-((1-(3-fluorophenyl)cyclohexyl)amino)-N-hydroxypyrimidine-5-carboxamide] was run?
The value was 0.00 log 2.

And the “light to heavy ratio (L/H ratio) of acetylated peptide VLSK(ac)[…] (SEQ ID NO: 294)” value (Isoform 1 of Protein SET [154], SET, drug:DMSO)?
The value was 0.00 log 2.

What about the “light to heavy ratio (L/H ratio) of acetylated peptide […](ac)ALK (SEQ ID NO: 349)” value (Isoform 1 of RNA-binding protein with serine-rich domain 1 [218], RNPS1, drug:DMSO) of the same compound?
The value was −0.46 log 2.

What about the “light to heavy ratio (L/H ratio), log 2 scale, acetylated peptide […](ac)TDQAQDVK (SEQ ID NO: 765)” value (Isoform 1 of Signal recognition particle 9 kDa protein [52], gene SRP9, drug:DMSO) of the same compound?
The value was 0.00.

And the “light to heavy ratio (L/H ratio) of acetylated peptide VLISFK(ac)ANDIEK (SEQ ID NO: 363)” value (Isoform 2 of Actin-related protein 2/3 complex subunit 5 [90], ARPC5, drug:DMSO)?
The value was 0.42 log 2.

What about the “light to heavy ratio (L/H ratio) of acetylated peptide TMSCSDK(ac)ILR (SEQ ID NO: 323)” value (Isoform 2 of Double-stranded RNA-specific adenosine deaminase [1013], ADAR, drug:DMSO) of the same compound?
The value was −0.65 log 2.

And the “light to heavy ratio (L/H ratio) of acetylated peptide […](ac)[…] (SEQ ID NO: 336)” value (Isoform 2 of Fibronectin type-III domain-containing protein 3A [507], FNDC3A, drug:DMSO)?
The value was 0.40 log 2.

What about the “light to heavy ratio (L/H ratio) of acetylated peptide K(ac)[…] (SEQ ID NO: 369)” value (Isoform 2 of Huntingtin-interacting protein K [35], C15orf63, drug:DMSO) of the same compound?
Its value is 1.00 log 2.

What about the “light to heavy ratio (L/H ratio) of acetylated peptide GAK(ac)PVVVLQK (SEQ ID NO: 611)” value (Isoform 2 of Nipped-B-like protein [1000], gene NIPBL, inhibitor:DMSO) of the same compound?
The value was 0.00 log 2.

And the “light to heavy ratio (L/H ratio) of acetylated peptide LIAGNK(ac)[…] (SEQ ID NO: 512)” value (Isoform 2 of Nuclear factor related to kappa-B-binding protein [1262], gene NFRKB, inhibitor:DMSO)?
Its value is 0.00 log 2.

And the “light to heavy ratio (L/H ratio) of acetylated peptide […](ac)K (SEQ ID NO: 626)” value (Isoform 2 of Septin-7 [207], gene, inhibitor:DMSO)?
Its value is 0.00 log 2.

What about the “light to heavy ratio (L/H ratio) of acetylated peptide YQQFK(ac)DFQR (SEQ ID NO: 258)” value (Isoform 2 of Spliceosome RNA helicase DDX39B [349], SNORD84, DDX39B, drug:DMSO) of the same compound?
Its value is 0.00 log 2.

And the “light to heavy ratio (L/H ratio) of acetylated peptide GLCEK(ac)PLASAAAK (SEQ ID NO: 536)” value (Isoform 2 of Transportin-3 [513], gene TNPO3, inhibitor:DMSO)?
Its value is 0.00 log 2.

And the “light to heavy ratio (L/H ratio), log 2 scale, acetylated peptide LEPLK(ac)PLK (SEQ ID NO: 772)” value (Isoform 3 of Proline-rich protein 12 [1223], gene PRR12, drug:DMSO)?
The value was 0.00.

And the “light to heavy ratio (L/H ratio) of acetylated peptide […](ac)FLK (SEQ ID NO: 326)” value (Isoform 5 of Transcriptional regulator ATRX [812], ATRX, drug:DMSO)?
Its value is 0.89 log 2.

And the “light to heavy ratio (L/H ratio), log 2 scale, acetylated peptide YNDPIYVK(ac)LEK (SEQ ID NO: 764)” value (Isoform A of AP-1 complex subunit beta-1 [335], gene AP1B1, drug:DMSO)?
Its value is 0.00.

And the “light to heavy ratio (L/H ratio) of acetylated peptide MVAAAK(ac)YAR (SEQ ID NO: 324)” value (Isoform Heart of ATP synthase subunit gamma mitochondrial [55], ATP5C1, drug:DMSO)?
Its value is −0.80 log 2.

And the “light to heavy ratio (L/H ratio) of acetylated peptide VPNDK(ac)YYGAQTVR (SEQ ID NO: 625)” value (Isoform Mitochondrial of Fumarate hydratase mitochondrial [66], gene FH, inhibitor:DMSO)?
The value was 0.00 log 2.

And the “light to heavy ratio (L/H ratio) of acetylated peptide MMVAGFK(ac)K (SEQ ID NO: 339)” value (Isoform Short of Heterogeneous nuclear ribonucleoprotein U [524], HNRNPU, drug:DMSO)?
Its value is −0.40 log 2.

What about the “light to heavy ratio (L/H ratio) of acetylated peptide APQCLGK(ac)FIEIAAR (SEQ ID NO: 338)” value (Isoform Short of Heterogeneous nuclear ribonucleoprotein U [546], HNRNPU, drug:DMSO) of the same compound?
Its value is 0.75 log 2.

And the “L/H ratio of acetylated peptide” value (K(ac)GPSVQKR (SEQ ID NO: 413), Isoform 1 of Protein lin-28 homolog B [240], LIN28B)?
The value was 0.47 log 2.

What about the “light to heavy ratio (L/H ratio) of acetylated peptide, log 2 scale” value (K(ac)[…] (SEQ ID NO: 152), Eukaryotic translation initiation factor 5A-2 [68], EIF5A2) of the same compound?
Its value is 0.00.

What about the “light to heavy ratio (L/H ratio) of acetylated peptide, log 2 scale” value (K(ac)[…] (SEQ ID NO: 164), Similar to nonhistone chromosomal protein HMG-1 [30], HMGB1P4) of the same compound?
Its value is 0.00.

What about the “light to heavy ratio (L/H ratio) of acetylated peptide, log 2 scale” value (K(ac)[…] (SEQ ID NO: 246), Endoplasmin [270], HSP90B1) of the same compound?
Its value is 0.00.

And the “L/H ratio of acetylated peptide” value (K(ac)[…] (SEQ ID NO: 373), T-complex protein 1 subunit zeta [280], CCT6A)?
Its value is 0.67 log 2.

What about the “L/H ratio of acetylated peptide” value (KDFIK(ac)TTVK (SEQ ID NO: 388), Protein DEK [367], DEK) of the same compound?
Its value is 0.38 log 2.

And the “L/H ratio of acetylated peptide” value (KK(ac)FLCVTK (SEQ ID NO: 411), Kelch repeat and BTB domain-containing protein 8 [178], KBTBD8)?
Its value is 1.00 log 2.

And the “light to heavy ratio (L/H ratio) of acetylated peptide, log 2 scale” value (KLPK(ac)[…] (SEQ ID NO: 198), Ras-related protein Rab-5C [184], RAB5C)?
Its value is 0.00.

And the “L/H ratio of acetylated peptide” value (KPEENPASK(ac)FSSASK (SEQ ID NO: 391), Eukaryotic translation initiation factor 4B [586], EIF4B)?
Its value is 0.53 log 2.

And the “L/H ratio of acetylated peptide” value (KSEDTISK(ac)MNDFMR (SEQ ID NO: 409), Isoform 1 of Gamma-interferon-inducible protein 16 [451], IFI16)?
Its value is −0.57 log 2.

And the “light to heavy ratio (L/H ratio) of acetylated peptide, log 2 scale” value (KTPCGEGSK(ac)TWDR (SEQ ID NO: 245), 40S ribosomal protein S20 [75], SNORD54, RPS20)?
The value was 0.00.

And the “light to heavy ratio (L/H ratio) of acetylated peptide IVADK(ac)DYSVTANSK (SEQ ID NO: 317)” value (L-lactate dehydrogenase B chain [82], LDHB, drug:DMSO)?
The value was 0.00 log 2.

And the “L/H ratio of acetylated peptide” value (LCK(ac)YIYAK (SEQ ID NO: 390), Eukaryotic translation initiation factor 3 subunit C [553], EIF3C, EIF3CL)?
The value was 0.45 log 2.
